Source: patent publication US7989649B2, “Tumor imaging compounds” (Emory University, priority 2002, dated 2011)

Test system: 9 L gliosarcoma cells
Test: Amino acid uptake inhibition assay in 9 L gliosarcoma cells
Type: cell-based, rat
Details: for uptake of activity blocked by BCH relative to controls: BCH 10 mM; for uptake of activity blocked by BCH relative to controls / uptake of activity blocked by N-MeAIB relative to controls: 30 minutes, 9 L gliosarcoma cells; for uptake of activity blocked by N-MeAIB relative to controls: N-MeAIB 10 mM; for intracellular accumulation in 9 L gliosarcoma cells: absence of inhibitors, 30 minutes of incubation; for substrate for A-type amino acid transport system: based on inhibition of uptake by N-MeAIB
Procedure: Amino acid uptake inhibition assays. The 9 L gliosarcoma cells were initially grown as monolayers in T-flasks containing Dulbecco's Modified Eagle's Medium (DMEM) under humidified incubator conditions (37° C., 5% CO2/95% air). The growth media was supplemented with 10% fetal calf serum and antibiotics (10,000 units/ml penicillin and 10 mg/ml streptomycin). The growth media was replaced three times per week, and the cells were passaged so the cells would reach confluency in a week's time.
When the monolayers were confluent, cells were prepared for experimentation in the following manner. Growth media was removed from the T-flask, and the monolayer cells were exposed to 1× trypsin:EDTA for ˜1 minute to weaken the protein attachments between the cells and the flask. The flask was then slapped, causing the cells to release. Supplemented media was added to inhibit the proteolytic action of the trypsin, and the cells were aspirated through an 18 Ga needle until they were monodisperse. A sample of the cells was counted under a microscope using a hemocytometer, and the live/dead fraction estimated through trypan blue staining (>98% viability). The remainder of the cells was placed into a centrifuge tube, centrifuged at 75 G for 5 minutes, and the supernatant was removed. The cells were then resuspended in amino-acid/serum-free DMEM salts.
In this study, approximately 4.55×10^5 cells were exposed to either [^18F]5a or [^18F]5b (5 μCi) in 3 ml of amino acid free media±transporter inhibitors (10 mM) for 30 minutes under incubator conditions in 12×75 mm glass vials. Each assay condition was performed in duplicate. After incubation, cells were twice centrifuged (75 G for 5 minutes) and rinsed with ice-cold amino-acid/serum-free DMEM salts to remove residual activity in the supernatant. The vials were placed in a Packard Cobra II Auto-Gamma counter, the raw counts decay corrected, and the activity per cell number determined. The data from these studies (expressed as percent uptake relative to control) were graphed using Excel, with statistical comparisons between the groups analyzed using a 1-way ANOVA (GraphPad Prism software package).

SMILES: CC(N)(CF)C(=O)O (racemic) [[^18F]5a, 2-amino-3-fluoro-2-methylpropanoic acid]
- uptake of activity blocked by BCH relative to controls: 48%
- uptake of activity blocked by N-MeAIB relative to controls: 80%
- intracellular accumulation in 9 L gliosarcoma cells: 0.43 % of the initial dose per million cells
- substrate for non-A transport system (based on inhibition of uptake by BCH): substrate in vitro for at least one non-A transport system, possibly system L
- substrate for A-type amino acid transport system: substrates for the A-type amino acid transport system

SMILES: CNC(C)(CF)C(=O)O (racemic) [[^18F]5b, 3-fluoro-2-methyl-2-(methylamino)propanoic acid]
- uptake of activity blocked by BCH relative to controls: 33%
- uptake of activity blocked by N-MeAIB relative to controls: 88%
- intracellular accumulation in 9 L gliosarcoma cells: 0.50 % of the initial dose per million cells
- substrate for A-type amino acid transport system: substrates for the A-type amino acid transport system
- selectivity for A-type amino acid transport (compared with [18F]5a): more selective substrate for the A-type amino transport system than [^18F]5a
